# Data reported in US20210369680A1, “METHODS OF TREATING DISEASES AND DISORDERS RESULTING FROM BETA CORONAVIRUS INFECTION” (T3D Therapeutics, Inc., priority 2020, published 2021).
# What was measured:
# Assay type in all cases: in vivo, human
# [1] = FDG-PET relative cerebral metabolic rate for glucose, clinical study; settings: for R CMRgl change (EOT-BL) relative to average Whole Brain: combined dose groups
# Description: FDG-PET Data from Clinical Study with Compound of Example 11
# FDG-PET scans were obtained at three clinical sites.
# Increases and decreases in relative regional glucose metabolism (A R CMRgl (EOT-BL)) were observed over the treatment period.
# [2] = Fasting plasma glucose in 2-week clinical study; design: FPG on Day 1 / FPG on Day 14 / FPG on Day 21 / FPG Change from D 1 to D 14 / FPG Change from D 1 to D 21: unit not given here
# Description: Fasting Plasma Glucose Levels for Compound 11 from a Clinical Study
# FPG measured in millimoles/Liter (MMOL/L), averaged over all subjects, was lowered from day 1 to day 14. For each individual dose group day 14 FPG levels were lower than day 1 levels. […] For the two highest doses, the FPG remained lower on follow-up testing on day 21, one week after end of treatment.
# [3] = Clinical DSST in subjects with mild-to-moderate dementia (Phase 2a)
# Description: Clinical DSST Data in Cognitively Impaired Subjects
# DSST is a commonly used tests in clinical neuropsychology, and has been used to measure a range of cognitive functions including intact motor speed, attention, executive, and visuo-perceptual functions. Reference is made to Jaeger J. Digit Symbol Substitution Test: The Case for Sensitivity Over Specificity hi Neuropsychological Testing. J Clin Psychopharmacol. 2018; 38(5):513-519. doi:10.1097/JCP.0000000000000941, which is incorporated by reference with regard to the example. DSST scores were assessed in a randomized, parallel, 4-dose Phase 2a study in subjects with mild-to-moderate dementia (MMSE for mild 20-26, for moderate 14-19) before and after treatment with compound of Example 11. A total of 34 subjects were randomized to one of 4 doses of drug, 3 mg (n=8), 10 mg (n=9), 30 mg (n=9) or 90 mg (n=8) administered orally once-a-day for 14 days then followed-up at day 21 (7-days post-dosing discontinuation.
# DSST scores are based on the number of correct substitutions in a fixed timeframe, and a higher score in the DSST denotes improvement. Data was collected at four time points for all subjects in each of the four dose groups: Prescreen (PS, one week before BL), baseline (BL), end-of-treatment (EOT) and follow-up (FU, one week after EOT). The DSST results averaged across all subjects at PS (14.1, SD=11.8) and BL (13.9, SD=12.5) were quite similar as would be expected. The larger standard deviations, and the wide range of scores (zero to 48) reflects the broad range of cognitive function in the 34 subjects in this trial. DSST averages per dose group at PS were: 3 mg, 13.88 (SD=10.83); 10 mg, 14.33 (SD=13.52); 30 mg, 18.78 (SD=14.52); and 90 mg, 8.88 (SD=6.56). The data is best described as averaged differences in individual results as it reduces variability. For all 34 subjects, the change in DSST score was −0.21 (SD=4.23) for (BL-PS), and 3.5 (SD=5.51) for (FU-EOT), with unpaired t-test p-value of 0.005. […]
structure (smiles),measurement,setting,value
"CCc1oc(-c2ccc(OC)cc2)nc1CCOc1ccc2c(c1)CC[C@H]2CC(=O)[O-].[Na+] [Example 11, Sodium (S)-2-(5-(2-(5-ethyl-2-(4-methoxyphenyl)oxazol-4-yl)ethoxy)-2,3-dihydro-1H-inden-1-yl)acetate]",spatial extent of ROSDs with positive R CMRgl change (p<0.005),[1]; 10 mg,70 voxels
same,spatial extent of ROSDs with positive R CMRgl change (p<0.005),[1]; 90 mg,2136 voxels
same,R CMRgl change (EOT-BL) relative to average Whole Brain,[1]; Cingulum Ant L,0.03 ± 0.04
same,R CMRgl change (EOT-BL) relative to average Whole Brain,[1]; Cingulum Ant R,0.02 ± 0.05
same,R CMRgl change (EOT-BL) relative to average Whole Brain,[1]; Cingulum Ant intersection L,0.04 ± 0.05
same,R CMRgl change (EOT-BL) relative to average Whole Brain,[1]; Cingulum Ant intersection R,0.03 ± 0.04
same,R CMRgl change (EOT-BL) relative to average Whole Brain,[1]; Insula L,0.02 ± 0.03
same,R CMRgl change (EOT-BL) relative to average Whole Brain,[1]; Insula R,0.02 ± 0.04
same,R CMRgl change (EOT-BL) relative to average Whole Brain,[1]; Insula intersection L,0.03 ± 0.03
same,R CMRgl change (EOT-BL) relative to average Whole Brain,[1]; Insula intersection R,0.03 ± 0.04
same,R CMRgl change (EOT-BL) relative to average Whole Brain,[1]; Orbital front intersection L,0.03 ± 0.04
same,R CMRgl change (EOT-BL) relative to average Whole Brain,[1]; Orbital front intersection R,0.03 ± 0.03
same,R CMRgl change (EOT-BL) relative to average Whole Brain,[1]; Putamen L,0.05 ± 0.07
same,R CMRgl change (EOT-BL) relative to average Whole Brain,[1]; Putamen R,0.05 ± 0.06
same,R CMRgl change (EOT-BL) relative to average Whole Brain,[1]; Putamen intersection L,0.06 ± 0.06
same,R CMRgl change (EOT-BL) relative to average Whole Brain,[1]; Putamen intersection R,0.06 ± 0.06
same,FPG Change from D 1 to D 14,[2]; 3 mg,−2.2
same,FPG Change from D 1 to D 21,[2]; 3 mg,2.5
same,FPG on Day 1,[2]; 3 mg,94.6
same,FPG on Day 14,[2]; 3 mg,92.4
same,FPG on Day 21,[2]; 3 mg,97.1
same,FPG Change from D 1 to D 14,[2]; 10 mg,−3.4
same,FPG Change from D 1 to D 21,[2]; 10 mg,0.5
same,FPG on Day 1,[2]; 10 mg,101.4
same,FPG on Day 14,[2]; 10 mg,98
same,FPG on Day 21,[2]; 10 mg,101.9
same,FPG Change from D 1 to D 14,[2]; 30 mg,−4.6
same,FPG Change from D 1 to D 21,[2]; 30 mg,−0.1
same,FPG on Day 1,[2]; 30 mg,99.2
same,FPG on Day 14,[2]; 30 mg,94.6
same,FPG on Day 21,[2]; 30 mg,99.1
same,FPG Change from D 1 to D 14,[2]; 90 mg,−7.0
same,FPG Change from D 1 to D 21,[2]; 90 mg,−4.7
same,FPG on Day 1,[2]; 90 mg,101.1
same,FPG on Day 14,[2]; 90 mg,94.1
same,FPG on Day 21,[2]; 90 mg,96.4
same,Fasting Plasma Glucose (FPG) levels,"[2]; 2-week clinical study, 34 subjects",lowered as a function of dose
same,FPG Change from D 1 to D 14,[2]; All subjects,−4.3
same,FPG Change from D 1 to D 21,[2]; All subjects,−1
same,FPG on Day 1,[2]; All subjects,99.1
same,FPG on Day 14,[2]; All subjects,94.8
same,FPG on Day 21,[2]; All subjects,98.1
same,change in DSST score EOT-PS,[3]; 3 mg group,0.57
same,change in DSST score FU-PS,[3]; 10 mg group,3.14
same,change in DSST score (FU-EOT),[3]; all 34 subjects,3.5
